Results on 3 compounds are retold here after publication PMC10096175, “An In Vitro Antimicrobial, Anticancer and Antioxidant Activity of N–[(2–Arylmethylthio)phenylsulfonyl]cinnamamide Derivatives” (Molecules, 2023).

In one series the test system is E. faecalis ATCC 51299. Briefly: MIC determination, reference strain (microdilution). The note with it: Enterococcus faecalis, ATCC51299; E. faecalis ATCC 51299; Co-trimoxazole as sulfamethoxazole/trimethoprim; read-out: MIC. The class given is cell-based. In general terms: Dilution methods test growth across graded concentrations, often in twofold steps.
Series [1] deals with 24 h biofilm already formed by MRSA strains. Put plainly: Effect on 24 h biofilm already formed, MRSA. Conditions: MRSA12677. Format: cell-based, Staphylococcus aureus.
The test system of series [2] is Staphylococcus sp. and Enterococcus sp. Put plainly: MIC, summary statements on reference Gram-positive cocci. Format: cell-based. The note with it: Staphylococcus and Enterococcus species, reference Gram-positive cocci (range over strains). The method, then: Sterile sheep blood defibrinated (GrasoBiotech). Co-trimoxazole (composition sulfamethoxazole 400 mg/trimethoprim 80 mg; WZF Polfa Poland). Ketoconazole (WZF Polfa Poland). Bacteria: Enterococcus hirae ATCC 10541 and Enterococcus faecalis ATCC 51299, Staphylococcus epidermidis ATCC 14990, Staphylococcus aureus ATCC 6538, clinical strains Staphylococcus aureus MRSA, clinical strains Staphylococcus sp. (MRCNS), clinical strain Staphylococcus epidermidis MRSE, clinical strain Enterococcus sp., Corynebacterium diphtheriae ZMF, Bacillus subtilis ATCC 6633, Escherichia coli ATCC 8739, Candida albicans ATCC 10231. Brain-heart infusion broth (BHI, Becton Dickinson) for Enterococcus hirae ATCC 10541 and Enterococcus faecalis ATCC 51299, BHI supplement with 10% bovine serum for Bacillus subtilis, Corynebacterium diphtheriae ZMF, Staphylococcus epidermidis ATCC 14990, Staphylococcus aureus ATCC 6538, clinical strains Staphylococcus aureus MRSA, clinical strains Staphylococcus sp. (CNS), clinical strain Staphylococcus epidermidis MRSE grew in Mueller-Hinton broth (MH cation-adjusted, Becton Dickinson) in an aerobic atmosphere at 37 °C for 48 h, in an aerobic atmosphere at 37 °C for 72 h. Candida albicans grew in Sabourauda broth (Sb, Becton Dickinson), in an aerobic atmosphere at 37 °C for 72 h. After determination of the bacterial viability, BHI blood agar plates, MH agar plates, and Sb agar plates were used.
The MIC determination for the reference and clinical strains was performed based on the methodology described by Kula et al.. The dry test samples were dissolved in dimethyl sulfoxide (DMSO) and diluted in water, resulting in a finale concentration of about 500 µg/mL. These solutions were diluted and added to the first well of each microtiter line. Dilution in geometric progression was done by transferring the mixture/dilution (100 μL) from the first to the twelfth well. An aliquot (100 μL) was discarded from the twelfth well. The final concentration of the samples used in the antimicrobial activity assay ranged from 125 to 0.006 µg/mL. Co-trimoxazole (for bacteria), with the composition sulfamethoxazole 400 mg/trimethoprim 80 mg was used as a reference compound in the concentration range of 20 000/4000 to 1/0.2 µg/mL. Ketoconazole (for fungi) was used as a reference compound in the concentration range of 125 to 0.006 µg/mL. Tests were incubated in adequate conditions described by Kula et al.. Diluent concentration had no effect on the activity of the tested compounds. All experiments were carried out three times.

The nature of the next series: in vitro. The note with it: sheep, defibrinated sheep blood diluted 1:9 v/v with PBS, pH 7.
In series [3] the test system is biofilm formation by MRSA clinical strains. Briefly: Inhibition of biofilm formation (crystal violet), MRSA. The note with it: 2 × MIC. Format: cell-based, Staphylococcus aureus.
Another series is described as follows: ABTS assay. The note with it: ABTS radical scavenging; 10 min, 30 °C.
Series [4] deals with cancer cells (HeLa, SKOV-3, MCF-7). Put plainly: MTT assay, summary statements on the cancer cells. Format: cell-based. The note with it: Homo sapiens, cell line not specified. (Tetrazolium assays rely on reduction of a dye to a coloured formazan, in cell work by metabolically active cells.)

Values after ≈ are worked out from the molar mass of the structure shown. Some results are limits rather than exact numbers.

The term MIC denotes the least concentration at which growth counts as inhibited. On to `Cc1cc(S(=O)(=O)NC(=O)/C=C/c2ccc(Cl)cc2)c(SCc2cc3c(cc2Cl)OCO3)cc1Cl` [Compound 17c, (E)–N–{4–Chloro–2–[(6–chlorobenzo[d][1,3]dioxol–5–yl)methylthio]–5–methylphenylsulfonyl}–3–(4–chlorophenyl)acrylamide], for which the MIC is 2 ± 0.58 mg/L (≈ 3.5 µM) in the series with E. faecalis ATCC 51299 and 1 to 2 mg/L (≈ 1.75 to 3.5 µM) in series [2]. In series [1] (2 × MIC), the “Inhibition of biofilm already formed, in relation to the control” value is “about 40%”. For the same compound, in the series “in vitro”, the hemolysis at 24 h, 31.25 µg/mL lay in the range of 12 to 20%. Also, the figures for the “Inhibition of biofilm formation compared with the control” value in series [3] (MRSA13318) and in series [3] (MRSA21804) were 98% and 61%, respectively. In addition, the “IC50 ABTS” value in “ABTS assay” turned out to be 496.63 ± 0.48 mg/L (≈ 870 µM).
For `COc1ccc(/C=C/C(=O)NS(=O)(=O)c2cc(C)c(Cl)cc2SCc2cccc3ccccc23)cc1F` [Compound 16e, (E)–N–{4–Chloro–5–methyl–2–[(naphthalen–1–yl)methylthio]phenylsulfonyl}–3–(3–fluoro–4–methoxyphenyl)acrylamide], the minimum inhibitory concentration (MIC) with E. faecalis ATCC 51299 is 4 ± 0.15 mg/L (≈ 7.19 µM). In addition, the “Inhibition of biofilm already formed, in relation to the control” value in series [1] (2 × MIC and 4 × MIC) is on record as “about 53%”. This compound displayed a hemolysis at 24 h, 31.25 µg/mL in “in vitro” of 12 to 20%. Besides, the “IC50 ABTS” value in the series “ABTS assay” amounted to 697.70 ± 0.43 mg/L (≈ 1250 µM).
For orientation: IC50 means the concentration at which inhibition is half-maximal. Consider `Cc1cc(S(=O)(=O)NC(=O)/C=C/c2ccc(Cl)cc2)c(SCc2cccc3ccccc23)cc1Cl` [Compound 16d, (E)–N–{4–Chloro–5–methyl–2–[(naphthalen–1–yl)methylthio]phenylsulfonyl}–3–(4–chlorophenyl)acrylamide], for which the minimum inhibitory concentration (MIC) in the series with E. faecalis ATCC 51299 is 2 ± 0.87 mg/L (≈ 3.69 µM); in series [2], 1 to 2 mg/L (≈ 1.84 to 3.69 µM). In addition, the IC50 in series [4] (MTT) is less than 10 mg/L; in series [4] (µg/mL bound converted), not above 20 µM. For the same compound, in the series “ABTS assay”, the “IC50 ABTS” value was 627.81 ± 2.29 mg/L (≈ 1160 µM).
